Experimental data as given in patent US12662498B2 (priority 2017, dated 2026).

Tests used:
[1] = Heat cycling slurry maturation of Psilocybin Pattern A in 24 solvents (visual solubility); also: test concentration or dose not given here
[2] = ICH stability study of psilocybin batches (appearance, water content, purity, assay); settings: accelerated conditions

SMILES: CN(C)CCc1c[nH]c2cccc(OP(=O)(O)O)c12 [Polymorph A]
- Obs. 20° C., 0.4 ml ([1]; 2-Chlorobutane): Susp.
- Obs. 20° C., 0.8 ml ([1]; 2-Chlorobutane): Susp.
- Obs. 20° C., 1.2 ml ([1]; 2-Chlorobutane): Susp.
- Obs. 50° C. ([1]; 2-Chlorobutane, 1.2 ml): Susp.
- Obs. 20° C., 0.4 ml ([1]; 4:1 EtOH/water): Susp.
- Obs. 20° C., 0.8 ml ([1]; 4:1 EtOH/water): Susp.
- Obs. 20° C., 1.2 ml ([1]; 4:1 EtOH/water): Susp.
- Obs. 50° C. ([1]; 4:1 EtOH/water, 1.2 ml): Susp.
- Obs. 20° C., 0.4 ml ([1]; 4:1 IPA/water): Susp.
- Obs. 20° C., 0.8 ml ([1]; 4:1 IPA/water): Susp.
- Obs. 20° C., 1.2 ml ([1]; 4:1 IPA/water): Susp.
- Obs. 50° C. ([1]; 4:1 IPA/water, 1.2 ml): Susp.
- Obs. 20° C., 0.4 ml ([1]; 4:1 THF/water): Susp.
- Obs. 20° C., 0.8 ml ([1]; 4:1 THF/water): Susp.
- Obs. 20° C., 1.2 ml ([1]; 4:1 THF/water): Susp.
- Obs. 50° C. ([1]; 4:1 THF/water, 1.2 ml): Susp.
- Obs. 20° C., 0.4 ml ([1]; Anisole): Susp.
- Obs. 20° C., 0.8 ml ([1]; Anisole): Susp.
- Obs. 20° C., 1.2 ml ([1]; Anisole): Susp.
- Obs. 50° C. ([1]; Anisole, 1.2 ml): Susp.
- Obs. 20° C., 0.4 ml ([1]; Benzotrifluoride): Susp.
- Obs. 20° C., 0.8 ml ([1]; Benzotrifluoride): Susp.
- Obs. 20° C., 1.2 ml ([1]; Benzotrifluoride): Susp.
- Obs. 50° C. ([1]; Benzotrifluoride, 1.2 ml): Susp.
- Obs. 20° C., 0.4 ml ([1]; CHCl3): Susp.
- Obs. 20° C., 0.8 ml ([1]; CHCl3): Susp.
- Obs. 20° C., 1.2 ml ([1]; CHCl3): Susp.
- Obs. 50° C. ([1]; CHCl3, 1.2 ml): Susp.
- Obs. 20° C., 0.4 ml ([1]; CPME): Susp.
- Obs. 20° C., 0.8 ml ([1]; CPME): Susp.
- Obs. 20° C., 1.2 ml ([1]; CPME): Susp.
- Obs. 50° C. ([1]; CPME, 1.2 ml): Susp.
- Obs. 20° C., 0.4 ml ([1]; Chlorobenzene): Susp.
- Obs. 20° C., 0.8 ml ([1]; Chlorobenzene): Susp.
- Obs. 20° C., 1.2 ml ([1]; Chlorobenzene): Susp.
- Obs. 50° C. ([1]; Chlorobenzene, 1.2 ml): Susp.
- Obs. 20° C., 0.4 ml ([1]; Cyclohexane): Susp.
- Obs. 20° C., 0.8 ml ([1]; Cyclohexane): Susp.
- Obs. 20° C., 1.2 ml ([1]; Cyclohexane): Susp.
- Obs. 50° C. ([1]; Cyclohexane, 1.2 ml): Susp.
- Obs. 20° C., 0.4 ml ([1]; EtOAc): Susp.
- Obs. 20° C., 0.8 ml ([1]; EtOAc): Susp.
- Obs. 20° C., 1.2 ml ([1]; EtOAc): Susp.
- Obs. 50° C. ([1]; EtOAc, 1.2 ml): Susp.
- Obs. 20° C., 0.4 ml ([1]; EtOH): Susp.
- Obs. 20° C., 0.8 ml ([1]; EtOH): Susp.
- Obs. 20° C., 1.2 ml ([1]; EtOH): Susp.
- Obs. 50° C. ([1]; EtOH, 1.2 ml): Susp.
- Obs. 20° C., 0.4 ml ([1]; Heptane): Susp.
- Obs. 20° C., 0.8 ml ([1]; Heptane): Susp.
- Obs. 20° C., 1.2 ml ([1]; Heptane): Susp.
- Obs. 50° C. ([1]; Heptane, 1.2 ml): Susp.
- Obs. 20° C., 0.4 ml ([1]; IPA): Susp.
- Obs. 20° C., 0.8 ml ([1]; IPA): Susp.
- Obs. 20° C., 1.2 ml ([1]; IPA): Susp.
- Obs. 50° C. ([1]; IPA, 1.2 ml): Susp.
- Obs. 20° C., 0.4 ml ([1]; MEK): Susp.
- Obs. 20° C., 0.8 ml ([1]; MEK): Susp.
- Obs. 20° C., 1.2 ml ([1]; MEK): Susp.
- Obs. 50° C. ([1]; MEK, 1.2 ml): Susp.
- Obs. 20° C., 0.4 ml ([1]; MIBK): Susp.
- Obs. 20° C., 0.8 ml ([1]; MIBK): Susp.
- Obs. 20° C., 1.2 ml ([1]; MIBK): Susp.
- Obs. 50° C. ([1]; MIBK, 1.2 ml): Susp.
- Obs. 20° C., 0.4 ml ([1]; MeCN): Susp.
- Obs. 20° C., 0.8 ml ([1]; MeCN): Susp.
- Obs. 20° C., 1.2 ml ([1]; MeCN): Susp.
- Obs. 50° C. ([1]; MeCN, 1.2 ml): Susp.
- Obs. 20° C., 0.4 ml ([1]; MeOH): Susp.
- Obs. 20° C., 0.8 ml ([1]; MeOH): Susp.
- Obs. 20° C., 1.2 ml ([1]; MeOH): Susp.
- Obs. 50° C. ([1]; MeOH, 1.2 ml): Susp.
- Obs. 20° C., 0.4 ml ([1]; Nitromethane): Susp.
- Obs. 20° C., 0.8 ml ([1]; Nitromethane): Susp.
- Obs. 20° C., 1.2 ml ([1]; Nitromethane): Susp.
- Obs. 50° C. ([1]; Nitromethane, 1.2 ml): Susp.
- Obs. 20° C., 0.4 ml ([1]; TBME): Susp.
- Obs. 20° C., 0.8 ml ([1]; TBME): Susp.
- Obs. 20° C., 1.2 ml ([1]; TBME): Susp.
- Obs. 50° C. ([1]; TBME, 1.2 ml): Susp.
- Obs. 20° C., 0.4 ml ([1]; THF): Susp.
- Obs. 20° C., 0.8 ml ([1]; THF): Susp.
- Obs. 20° C., 1.2 ml ([1]; THF): Susp.
- Obs. 50° C. ([1]; THF, 1.2 ml): Susp.
- Obs. 20° C., 0.4 ml ([1]; Toluene): Susp.
- Obs. 20° C., 0.8 ml ([1]; Toluene): Susp.
- Obs. 20° C., 1.2 ml ([1]; Toluene): Susp.
- Obs. 50° C. ([1]; Toluene, 1.2 ml): Susp.
- Obs. 20° C., 0.4 ml ([1]; Water): Susp.
- Obs. 20° C., 0.8 ml ([1]; Water): Susp.
- Obs. 20° C., 1.2 ml ([1]; Water): Susp.
- Obs. 50° C. ([1]; Water, 1.2 ml): Solution
- Obs. 20° C., 0.4 ml ([1]; iPrOAc): Susp.
- Obs. 20° C., 0.8 ml ([1]; iPrOAc): Susp.
- Obs. 20° C., 1.2 ml ([1]; iPrOAc): Susp.
- Obs. 50° C. ([1]; iPrOAc, 1.2 ml): Susp.
- time stable under accelerated stability testing conditions [2]: 12 months
